Tests used:
[1] = tested on: wild-type C. elegans; set-up: method as in previously published data; conditions: earlier larval stages, longer exposure times; ref previously published data; cited from earlier work
[2] = tested on: mitochondrial membrane potential of C. elegans young adults; assay: Mitochondrial membrane potential measurement; assay type: in vivo, Caenorhabditis elegans; conditions: 100 μM; 24 h
Protocol: After 24 h, the compounds were washed away. Then, the mitochondrial membrane potential was measured using a specialized fluorescent dye (kit MAK147, Sigma-Aldrich). The kit was used according to the manufacturer’s instructions with modified incubation temperature and time (20 °C, 4 h) to account for the fact that living intact worms were used instead of cell cultures. , Dyed worms (approximately 200 per well) were distributed onto a black 96-well plate, and the fluorescence was measured using a Tecan Infinite 200 Pro plate reader.
Determining the mechanism of action of compounds is always challenging; however, the nature of their effect, as well as the structural similarity to compounds with known properties, can provide useful insights. One of our hypotheses was that the compounds might interfere with energy production. We based this assumption on the behavior of compound-treated worms (delayed development, lower fecundity, and relatively rapid decrease in motility rates but not necessarily death). Impaired mitochondrial function would be accompanied by a decrease in mitochondrial membrane potential (MMP).

[3] = tested on: C. elegans N2; assay: Scoring of developmental rates, L1 exposed 5 days; assay type: in vivo, Caenorhabditis elegans
Text: (§1) Dead or mostly immobile worms, arrested at the L1 stage, received a score of 1. Populations with severely delayed development were scored as 2. More developmentally advanced, but still obviously delayed worms were given the score of 3. Adult worms that produce a noticeably lower number of progeny received a score of 4. Healthy worms that reproduce normally (i.e., hundreds of eggs and larvae are present) were scored as 5 (see Figure C for representative images). In a typical, correctly prepared experiment, vehicle-treated populations should receive a score of 5, while worms treated with ivermectin (positive control) should receive a score of 1. […]

[4] = tested on: C. elegans complex II mutant RP2700; assay: Scoring of developmental rates, L1 exposed 5 days; assay type: in vivo, Caenorhabditis elegans
Text: as §1

[5] = tested on: C. elegans complex II mutant RP2702; assay: Scoring of developmental rates, L1 exposed 5 days; assay type: in vivo, Caenorhabditis elegans
Text: as §1

[6] = tested on: C. elegans complex II mutant RP2699; assay: Scoring of developmental rates, L1 exposed 5 days; assay type: in vivo, Caenorhabditis elegans
Text: as §1

[7] = tested on: C. elegans MCII mutant RP2702; assay: Acute motility of young adults on WMicrotracker ONE; assay type: in vivo, Caenorhabditis elegans; conditions: 100 μM; 24 h
Protocol: (§2) The effect of compounds on C. elegans N2 and SDH mutant strains was measured in a similar manner. Briefly, for evaluation of the acute effect of the compounds, age-synchronized young adults of each strain, kept in S complete medium supplemented with E. coli OP50 (3 mg/mL, fresh weight), were transferred onto microtiter plates (96-well, U bottom), and their initial motility was measured for 30 min. […] Afterward, the compounds were washed away, and worms, supplemented with fresh liquid media and food, were distributed onto 96-well plates and allowed to recover. Their activity was measured using WMicrotracker ONE at the indicated time points.
(§3) To experimentally support this promising initial finding, we tested the effect of i-19 against several C. elegans MCII mutant strains. These nematodes carry point mutations that result in amino acid changes in regions of subunits SDHC and SDHD that contribute to the formation of the ubiquinone-binding pocket, thereby influencing its shape and the ability of inhibitors to interact with the protein. […] The compounds were tested in multiple setups. At first, young adults were exposed to higher doses (100, 50, and 10 μM) of the compounds for up to 48 h, and changes in motility were evaluated using WMicrotracker. For both compounds, we observed a less pronounced decrease in movement rates of MCII mutants compared to wild-type worms, in both a dose- and time-dependent manner (Figure ).

[8] = tested on: C. elegans MCII mutant RP2699; assay: as above; assay type: in vivo, Caenorhabditis elegans; conditions: 100 μM; 24 h
Protocol: as §2, §3

[9] = tested on: C. elegans MCII mutant RP2700; assay: as above; assay type: in vivo, Caenorhabditis elegans; conditions: 100 μM; 24 h
Protocol: as §2, §3

[10] = tested on: C. elegans wild-type N2; assay: as above; assay type: in vivo, Caenorhabditis elegans; conditions: 100 μM; 24 h
Protocol: as §2, §3

[11] = tested on: C. elegans wild-type and MCII mutants; assay: Recovery of pretreated worms on WMicrotracker ONE; assay type: in vivo, Caenorhabditis elegans; conditions: 5 or 10 μM for 72 h, then wash-out and recovery
Protocol: as §2, with “Briefly,” for “The effect of compounds on C. elegans N2 and SDH mutant strains was measured in a similar manner. Briefly,”
C. elegans L1 larvae were exposed to 5 or 10 μM of the compounds for 72 h, after which the compounds were washed away, and the recovery of the nematodes was evaluated using WMicrotracker.

[12] = tested on: C. elegans wild-type and MCII mutant strains; assay: Scoring of developmental rates, comparison of strains; assay type: in vivo, Caenorhabditis elegans; conditions: L1 exposed 5 days
Text: Dead or mostly immobile worms, arrested at the L1 stage, received a score of 1. Populations with severely delayed development were scored as 2. More developmentally advanced, but still obviously delayed worms were given the score of 3. Adult worms that produce a noticeably lower number of progeny received a score of 4. Healthy worms that reproduce normally (i.e., hundreds of eggs and larvae are present) were scored as 5 (see Figure C for representative images). In a typical, correctly prepared experiment, vehicle-treated populations should receive a score of 5, while worms treated with ivermectin (positive control) should receive a score of 1.
We attribute this discrepancy to methodological differences: in previous studies, earlier larval stages, longer exposure times, and different evaluation methods, possibly more sensitive than WMicrotracker, were used.

SMILES: O=C(NCCc1ncc(C(F)(F)F)cc1Cl)c1ccccc1C(F)(F)F [fluopyram, reference compound]
- concentrations that strongly affect wild-type C. elegans [1]: below 1 μM
- MMP signal lower than in vehicle-treated control animals [2]: ~85%
- mean score (1-5) ([3]; 0.012 µM): 4.667
- mean score (1-5) ([3]; 0.024 µM): 4.333
- mean score (1-5) ([3]; 0.049 µM): 3.667
- mean score (1-5) ([3]; 0.195 µM): 2.778
- mean score (1-5) ([3]; 0.391 µM): 2
- mean score (1-5) ([3]; 0.781 µM): 1
- mean score (1-5) ([3]; 1.563 µM): 1
- mean score (1-5) ([3]; 3.125 µM): 1
- mean score (1-5) ([3]; 6.25 µM): 1
- mean score (1-5) ([3]; 12.5 µM): 1
- mean score (1-5) ([3]; 25 µM): 1
- mean score (1-5) ([3]; 50 µM): 1
- mean score (1-5) ([3]; 100 µM): 1
- mean score (1-5) ([4]; 0.012 µM): 5
- mean score (1-5) ([4]; 0.024 µM): 5
- mean score (1-5) ([4]; 0.049 µM): 5
- mean score (1-5) ([4]; 0.195 µM): 4.778
- mean score (1-5) ([4]; 0.391 µM): 4.444
- mean score (1-5) ([4]; 0.781 µM): 3.556
- mean score (1-5) ([4]; 1.563 µM): 3.667
- mean score (1-5) ([4]; 3.125 µM): 2.444
- mean score (1-5) ([4]; 6.25 µM): 1.222
- mean score (1-5) ([4]; 12.5 µM): 1
- mean score (1-5) ([4]; 25 µM): 1.333
- mean score (1-5) ([4]; 50 µM): 1
- mean score (1-5) ([4]; 100 µM): 1
- mean score (1-5) ([5]; 0.012 µM): 5
- mean score (1-5) ([5]; 0.024 µM): 5
- mean score (1-5) ([5]; 0.049 µM): 5
- mean score (1-5) ([5]; 0.195 µM): 4.889
- mean score (1-5) ([5]; 0.391 µM): 4.667
- mean score (1-5) ([5]; 0.781 µM): 4.111
- mean score (1-5) ([5]; 1.563 µM): 3.556
- mean score (1-5) ([5]; 3.125 µM): 3.111
- mean score (1-5) ([5]; 6.25 µM): 2.333
- mean score (1-5) ([5]; 12.5 µM): 1
- mean score (1-5) ([5]; 25 µM): 1
- mean score (1-5) ([5]; 50 µM): 1
- mean score (1-5) ([5]; 100 µM): 1
- mean score (1-5) ([6]; 0.012 µM): 4.667
- mean score (1-5) ([6]; 0.024 µM): 4.444
- mean score (1-5) ([6]; 0.049 µM): 4
- mean score (1-5) ([6]; 0.195 µM): 4.556
- mean score (1-5) ([6]; 0.391 µM): 4.444
- mean score (1-5) ([6]; 0.781 µM): 3.889
- mean score (1-5) ([6]; 1.563 µM): 3.111
- mean score (1-5) ([6]; 3.125 µM): 3.333
- mean score (1-5) ([6]; 6.25 µM): 1.222
- mean score (1-5) ([6]; 12.5 µM): 1
- mean score (1-5) ([6]; 25 µM): 1
- mean score (1-5) ([6]; 50 µM): 1.222
- mean score (1-5) ([6]; 100 µM): 1
- decrease of mean activity counts [7]: 28%
- decrease of mean activity counts [8]: 53%
- decrease of mean activity counts [9]: 16%
- decrease of mean activity counts [10]: 60%
- resistance of MCII mutants compared to wild-type [11]: increased resistance of the MCII mutants
- concentrations at which all strains were severely affected [12]: > 6.25 µM

— article PMC12766724, “Synthesis, Anthelmintic Activity, and Mechanism of Action of 5‑Aryl‑1H‑indoles” (Journal of Agricultural and Food Chemistry, 2025)
